Key:
[1] = system: αSMA expression in NHDF; assay: Ex vivo model for fibrosis or hypertrophic scar: αSMA expression by RT-qPCR and Western Blot; format: cell-based, human; settings: fibroblasts cultivated with TGF-β (10 ng/mL TGF-β1); FIGS. 1 and 2
Description: To study the myofibroblasts involved in generating hypertrophic or keloid scars, NHDF were cultivated on collagen coated culture plates in DMEM-F12 (Invitrogen), supplemented with 10% FCS (Invitrogen), 5 μg/mL of insulin and 1 ng/mL of b-FGF (PromoKine) and 10 ng/mL of TGF-β1 (Promocell), as TGF-β1 is known to induce the expression of αSMA in fibroblasts (Desmouliere A, Geinoz A, Gabbiani F, Gabbiani G (1993) Transforming growth factor-beta 1 induces alpha-smooth muscle actin expression in granulation tissue myofibroblasts and in quiescent and growing cultured fibroblasts. J Cell Biol, 1993 July, 122(1): 103-111). […]
This αSMA expression was assessed by RT-qPCR (mRNA levels) and by Western Blot (protein).
Total proteins were extracted by scratching the cells with lysis buffer (TRIS, NaCl, NP40, EDTA, IMDTT) and incubated 30 min in ice. […] Protein concentration was determined according to BCA method (Sigma). […] Signals were detected by ECL chemiluminescence using UptiLight HS WB Substrate (Uptima, Interchim). Bands were digitized with a scanner and the ratio between all bands density of the same blot was calculated by software (ImageJ 1.43u, 64-bit). […]
After four days of experiment, treated fibroblasts were detached with TRIzol Reagent (Invitrogen) and stored at −80° C. […] Total RNA was quantified on the NanoDrop 2000c Spectrophotometer (Thermo Scientific). […]

[2] = system: PI16 mRNA in NHDF (Normal Human Dermal Fibroblast); assay: Timing of PI16 mRNA expression after TGFbeta treatment (RTqPCR); format: cell-based; settings: after 1 h of TGFbeta, FIG. 4A and B
Description: Quantitative real-time PCR (RT-qPCR) was done using 5 μL of 1:20 diluted cDNA on the LightCycler480 system (Roche) using Maxima SYBR Green qPCR Master Mix (Fermentas). Forward and reverse primers were designed by Eurofins (MWG, αSMA forward: […] (SEQ ID NO:1), αSMA reverse: […] (SEQ ID NO:2)) and a 100 μM stock was stored at −20° C. Forward and reverse primer pairs were used for each RT-qPCR reaction. The cycling conditions were as follows: an initial 95° C. for 10 minutes, followed by 45 cycles of 95° C. for 15 sec, 58° C. for 30 sec, 72° C. for 20 sec. LightCycler 480 SW 1.5 was used to evaluate the TM curves, to determine the Cp and to approximate the relative concentration for each amplification reaction.
NHDF (Normal Human Dermal Fibroblast) were treated with TGFbeta as described previously for different times (between 1 h and 96 h). After treatment mRNA were extracted and levels of PI16 mRNA were assessed by RTqPCR.

TGF-β: TGF-β1 (Promocell), known to induce the expression of αSMA in fibroblasts
αSMA expression (mRNA and protein) [1]: high level | PI16 mRNA up regulation after TGFbeta treatment [2]: 3 ×
